Assay results as given in patent US8758782B2, “Excipient preservatives and pharmaceutical compositions comprised thereof” (Galderma Research & Development, priority 2007, dated 2014).

How the values were obtained:
[1] = test system: Candida albicans, reference ATCC 10231; assay: Preservative Efficacy Test (PET), Candida albicans; format: cell-based; set-up: key to Yeast, Candida albicans: −: No European pharmacopoeia criterion or USP criterion is met; +: for the coli: the USP criteria are met; ++: the European pharmacopoeia criteria A are met; details: additive in standard emulsion
Text: (§1) A particular problem that must be solved by the invention is that of effectively protecting a pharmaceutical topical composition while at the same time meeting the criteria required by the European and U.S. pharmacopoeias. This is because, since the purpose of the pharmaceutical composition is to become a pharmaceutical product with a marketing authorization, it is imperative for the composition according to the invention to meet these criteria. In order to verify this point and to determine the antimicrobial action of the various mixtures of excipients according to the invention, a test protocol, known as the PET (Preservative Efficacy Test), exists. The PET comprises artificially inoculating the compositions with a known number of microorganisms, and then determining the decrease in the latter in the compositions tested, at given times. The protocol of this test is set up in order to abide by the recommendations of the European and U.S. pharmacopoeias. […] The mixture of excipients as preservatives, described herein, should therefore meet the criteria of these pharmacopoeias in the PET. This test comprises artificially contaminating aliquots of formulation by means of a calibrated inoculum of specific microorganisms and incubating the same at precise temperatures. Samples are taken from the contaminated aliquots at given time intervals in order to count the microorganisms. Fungi: • Candida albicans, reference ATCC 10231; NCPF 3179; IP 48.72. • Aspergillus niger, reference ATCC 16404; IMI 149007; IP 1431.83. Fungi: • Candida albicans, reference ATCC 10231. • Aspergillus niger, reference ATCC 16404.

[2] = test system: Bacteria and fungi (Escherichia coli, Pseudomonas aeruginosa, Staphylococcus aureus, Candida albicans, Aspergillus niger); assay: PET, overall compliance with European and U.S. pharmacopoeia criteria; format: cell-based; details: for Efficacy on the microorganisms as a whole / spectrum of efficacy: additive in standard emulsion; for USP criteria / Bacteria: European pharmacopoeia criteria: 30% by mass in an aqueous solution, without ethanol; for Bacteria: European pharmacopoeia criteria: bacteria only; for Solutions providing antimicrobial protection, Pharma Europe: EtOH concentration / Solutions providing antimicrobial protection, Pharma USP: EtOH concentration: ethanol combined with the humectant; for Solutions providing antimicrobial protection, Pharma Europe: EtOH concentration / Solutions providing antimicrobial protection, Pharma USP: EtOH concentration / Solutions providing antimicrobial protection, Pharma Europe: humectant concentration / Solutions providing antimicrobial protection, Pharma USP: humectant concentration: lotion-type aqueous solution, no preservative; for Solutions providing antimicrobial protection, Pharma Europe: humectant concentration / Solutions providing antimicrobial protection, Pharma USP: humectant concentration: humectant combined with ethanol; for Ethanol concentration to meet European pharmacopoeia criteria A: reduced from 25%; for Ethanol concentration to meet the USP criteria: reduced from 15%
Text: A particular problem that must be solved by the invention is that of effectively protecting a pharmaceutical topical composition while at the same time meeting the criteria required by the European and U.S. pharmacopoeias. This is because, since the purpose of the pharmaceutical composition is to become a pharmaceutical product with a marketing authorization, it is imperative for the composition according to the invention to meet these criteria. In order to verify this point and to determine the antimicrobial action of the various mixtures of excipients according to the invention, a test protocol, known as the PET (Preservative Efficacy Test), exists. The PET comprises artificially inoculating the compositions with a known number of microorganisms, and then determining the decrease in the latter in the compositions tested, at given times. The protocol of this test is set up in order to abide by the recommendations of the European and U.S. pharmacopoeias. The test and also the recommendations of the European and U.S. pharmacopoeias are described in Example 1 to follow. The mixture of excipients as preservatives, described herein, should therefore meet the criteria of these pharmacopoeias in the PET.
This test comprises artificially contaminating aliquots of formulation by means of a calibrated inoculum of specific microorganisms and incubating the same at precise temperatures. Samples are taken from the contaminated aliquots at given time intervals in order to count the microorganisms.
It also makes it obligatory to study the reductions in population of the microorganisms introduced into the formulation according to two acceptability criteria.
Since the A criteria are the most strict, it are […] generally required that they be met.
In justified cases, when the A criteria cannot be complied with, for example owing to an increase in the risk of adverse reactions, the B criteria, which are less drastic, apply.
NI (Non-Increase) signifies that there must not be an increase in the number of microorganisms.
It imposes logarithmic reductions in the population of microorganisms which are different than that of the European pharmacopoeia.

[3] = test system: Escherichia coli, reference ATCC 8739; assay: Preservative Efficacy Test (PET), Escherichia coli; format: cell-based; set-up: key to Gram− bacterium, Esoherichia coli: −: No European pharmacopoeia criterion or USP criterion is met; +: for the coli: the USP criteria are met; ++: the European pharmacopoeia criteria A are met; details: additive in standard emulsion
Text: (§2) A particular problem that must be solved by the invention is that of effectively protecting a pharmaceutical topical composition while at the same time meeting the criteria required by the European and U.S. pharmacopoeias. This is because, since the purpose of the pharmaceutical composition is to become a pharmaceutical product with a marketing authorization, it is imperative for the composition according to the invention to meet these criteria. In order to verify this point and to determine the antimicrobial action of the various mixtures of excipients according to the invention, a test protocol, known as the PET (Preservative Efficacy Test), exists. The PET comprises artificially inoculating the compositions with a known number of microorganisms, and then determining the decrease in the latter in the compositions tested, at given times. The protocol of this test is set up in order to abide by the recommendations of the European and U.S. pharmacopoeias. […] The mixture of excipients as preservatives, described herein, should therefore meet the criteria of these pharmacopoeias in the PET. This test comprises artificially contaminating aliquots of formulation by means of a calibrated inoculum of specific microorganisms and incubating the same at precise temperatures. Samples are taken from the contaminated aliquots at given time intervals in order to count the microorganisms. Bacteria: • Escherichia coli, reference ATCC 8739. • Pseudomonas aeruginosa, reference ATCC 9027. • Staphylococcus aureus, reference ATCC 6538.

[4] = test system: Staphylococcus aureus, reference ATCC 6538; assay: Preservative Efficacy Test (PET), Staphylococcus aureus; format: cell-based; set-up: key to Gram+ bacterium, Staphylococcus aureus: −: No European pharmacopoeia criterion or USP criterion is met; +: for the coli: the USP criteria are met; ++: the European pharmacopoeia criteria A are met; details: additive in standard emulsion
Text: as §2, with “Bacteria: • Pseudomonas aeruginosa, reference ATCC 9027; NCIMB 8626; CIP 82.118. • Staphylococcus aureus, reference ATCC 6538; NCTC 10788; NCIMB 9518; CIP 4.83. Bacteria: • Escherichia coli,” for “Bacteria: • Escherichia coli,”

[5] = test system: Aspergillus niger, reference ATCC 16404; assay: Preservative Efficacy Test (PET), Aspergillus niger; format: cell-based; set-up: key to Moulds, Aspergillus Niger: −: No European pharmacopoeia criterion or USP criterion is met; +: for the coli: the USP criteria are met; ++: the European pharmacopoeia criteria A are met; details: for Moulds, Aspergillus Niger: additive in standard emulsion at its given % (EDTA 0.15, citric acid 2, sodium ascorbate 2, tocopherol 0.05, BHT 1, propyl gallate 0.1, ascorbyl palmitate 1)
Text: as §1

[6] = test system: Pseudomonas aeruginosa, reference ATCC 9027; assay: Preservative Efficacy Test (PET), Pseudomonas aeruginosa; format: cell-based; set-up: key to Gram− bacterium, Pseudomonas aeruginosa: −: No European pharmacopoeia criterion or USP criterion is met; +: for the coli: the USP criteria are met; ++: the European pharmacopoeia criteria A are met; details: additive in standard emulsion
Text: as §2, with “Bacteria: • Pseudomonas aeruginosa, reference ATCC 9027; NCIMB 8626; CIP 82.118. • Staphylococcus aureus, reference ATCC 6538; NCTC 10788; NCIMB 9518; CIP 4.83. Bacteria: • Escherichia coli,” for “Bacteria: • Escherichia coli,”

Aspergillus niger = details: cited from earlier work
Candida albicans = details: cited from earlier work

Row | Compound | Yeast, Candida albicans [1] | Gram− bacterium, Esoherichia coli [3] | Gram+ bacterium, Staphylococcus aureus [4] | Moulds, Aspergillus Niger [5] | Gram− bacterium, Pseudomonas aeruginosa [6] | Solutions providing antimicrobial protection, Pharma Europe: EtOH concentration [2] | Solutions providing antimicrobial protection, Pharma USP: EtOH concentration [2] | Solutions providing antimicrobial protection, Pharma Europe: humectant concentration [2] | Solutions providing antimicrobial protection, Pharma USP: humectant concentration [2] | further results
1 | CCCCCCCCCCCCCCCC(=O)OC[C@H](O)[C@H]1OC(=O)C(O)=C1O [Ascorbyl palmitate] | − | + | ++ | − | ++ |  |  |  |  | Efficacy on the microorganisms as a whole / spectrum of efficacy [2]: bactericidal
2 | Cc1cc(C(C)(C)C)c(O)c(C(C)(C)C)c1 [BHT, butylhydroxytoluene] | − | − | − | − | − |  |  |  |  | 
3 | O.O.O=C([O-])CN(CCN(CC(=O)O)CC(=O)O)CC(=O)[O-].[Na+].[Na+] [EDTA, Disodium EDTA Dihydrate] | − | − | − | − | ++ |  |  |  |  | Inhibition of Pseudomonas aeruginosa, criteria met [6]: meeting European pharmacopoeia criteria A
4 | CC(O)CO (stereo not drawn) [PG, Propylene glycol] |  |  |  |  |  | starting from 15% | starting from 0% EtOH | starting from 5% PG | starting from 30% PG | USP criteria [2]: makes it possible to meet; Bacteria: European pharmacopoeia criteria [2]: meeting European pharmacopoeia criteria A; Ethanol concentration to meet European pharmacopoeia criteria A ([2]; with 10% of PG): 15%; Action on fungi, in particular Aspergillus niger ([5]; humectant alone, without ethanol): does not ensure a decrease in these microorganisms
5 | CCCOC(=O)c1cc(O)c(O)c(O)c1 [Propyl gallate] | − | − | − | − | ++ |  |  |  |  | Inhibition of Pseudomonas aeruginosa, criteria met [6]: meeting European pharmacopoeia criteria A
6 | O=C1O[C@H]([C@@H](O)CO)C([O-])=C1O.[Na+] [Sodium ascorbate] | − | + | ++ | − | − |  |  |  |  | Action on Escherichia coli, criteria met [3]: meeting the USP criteria; Action on Staphylococcus aureus, criteria met [4]: meeting European pharmacopoeia criteria A
7 | OCC(O)CO [glycerol] |  |  |  |  |  | starting from 15% | starting from 5% EtOH | starting from 5% | starting from 10% | USP criteria [2]: does not meet; Bacteria: European pharmacopoeia criteria [2]: meet only European pharmacopoeia criteria B for bacteria; Ethanol concentration to meet European pharmacopoeia criteria A ([2]; with 5% by mass of glycerol): 15%; Ethanol concentration to meet the USP criteria ([2]; with 10% by mass of glycerol): 5%
8 | COC(=O)c1ccc(O)cc1 [methylparaben] |  |  |  |  |  |  |  |  |  | Concentration that makes it possible to inhibit Aspergillus niger (Aspergillus niger): 1000 ppm; Concentration that makes it possible to inhibit Candida albicans (Candida albicans): 1000 ppm
9 | Polyethylene Glycol 400 [PEG 400] |  |  |  |  |  | starting from 10% | starting from 5% EtOH | starting from 20% | starting from 20% PEG | Ethanol concentration to meet the USP criteria ([2]; with 20% by mass of PEG 400): 5%; Ethanol concentration to meet European pharmacopoeia criteria A ([2]; with 20% by mass of PEG 400): 10%
10 | Tocopherol | − | − | − | − | − |  |  |  |  | Efficacy on the microorganisms as a whole / spectrum of efficacy [2]: do not have a significant efficacy
